pIC50: −log10 of the molar value.
Tested on: 422866-222-R5-J1-PDC spheroids with HUVEC/MSC, viability
Experiment: Anticancer human tumor 422866-222-R5-J1-PDC patient-derived pancreatic adenocarcinoma cell line growth inhibition [GQUAD]
Settings: for pIC50: curve of first compound; for viability, T/C: stronger effect = lower value; active means viability on the fitted dose curve at most 10% of control; inactive means the rest
Text: DNA G-quadruplex Stabilizer Agents in Combinations in Complex Spheroids
A high-throughput screen of multi-cell type tumor spheroids was designed to identify active combinations of DNA G-quadruplex stabilizer agents and targeted small molecules. Complex spheroids include a stromal component modeled by human endothelial cells (HUVEC) and fibroblasts modeled by human mesenchymal stem cells (MSCs). The concentration ranges selected for each drug and investigational agent were based upon clinically achievable concentrations if the clinical Cmax of the agent was known.
Compounds. The drugs and investigational agents: pidnarulex (CX-5461; NSC782164), APTO-253 (NSC789042), BRACO-19 (NSC847499), peposertib (NSC802822), ceralasertib (NSC780249), elimusertib (NSC800525), camonsertib (NSC841442), AZD-1390 (NSC803789), olaparib (NSC753686), talazoparib (NSC767125), ART-558 (NSC835418), sotorasib (NSC818433), MRTX-1133 (NSC836407), SN-38 (NSC673596), topotecan (NSC609699), etoposide (NSC141540), doxorubicin (NSC123127), gemcitabine (NSC613327), 5-fluorouracil (NSC19893), paclitaxel (NSC125973), vemurafenib (NSC761431), panobinostat (NSC761190), R-306465 (JNJ-16241199; NSC773264), adavosertib (NSC754352), TP-3654 (NSC805149), carboplatin (NSC241240), KSQ-4279 (NSC840948), and staurosporine (NSC755774) were obtained from the National Cancer Institute (NCI) Developmental Therapeutics Program Chemical Repository (34). The FDA-approved anticancer drug set is available from the NCI Developmental Therapeutics Program. […] The stock solutions were prepared in dimethyl sulfoxide (DMSO, Sigma-Aldrich, St. Louis, MO, cat. D2650) at 800-fold the tested concentration and stored at -70 degrees C prior to their use. All drugs and investigational agents were tested over a range starting from a high concentration at or near the clinical Cmax and decreasing in half-log increments. If the clinical Cmax for an agent had not been determined, the highest concentration tested was 10 microM.
2.3 Cell Culture. All cells were maintained in an incubator at 37 degrees C and 5% CO2 with 95% humidity. The PDC lines were cultured according to standard operating procedures established by the NCI PDMR. All PDCs were thawed and cultured in Matrigel-coated flasks prepared with a working solution of 1X Ham's F-12 nutrient mix, without supplementation (Invitrogen, cat. 11765054), 100 U/mL penicillin-streptomycin (Invitrogen, cat. 15140122), and 2.5% Matrigel (Corning Inc., cat. 354248) for the first three passages. The 857933-349-R-J2-PDC line was cultured in 6C/Colon 1B media, which includes advanced DMEM/F-12 (Thermo Fisher Scientific, cat. 12634028), 10 mM HEPES (Thermo Fisher Scientific, cat. 15630080), 1X GlutaMAX supplement (Thermo Fisher Scientific, cat. 35050061), 0.1 mg/mL primocin (InvivoGen, cat. ant-pm-2), 10% defined fetal bovine serum, heat inactivated (HyClone Laboratories Inc., cat. SH30070.03HI), 50% L-WRN conditioned media (ATCC, cat. CRL-3276), 1.25 mM N-Acetyl-L-cysteine (Sigma-Aldrich, cat. A9165), 10 mM nicotinamide (Sigma-Aldrich, cat. N0636), 1X B-27 supplement (Thermo Fisher Scientific, cat. 17504044), 1X N-2 supplement (Thermo Fisher Scientific, cat. 17502048), 10 microM Y-27632 dihydrochloride (Tocris Bioscience, cat. 1254), and 50 ng/mL human EGF recombinant protein (Thermo Fisher Scientific, cat. PHG0311). The 485176-168-R4-J1-PDC line was cultured in Panc media, which includes all 6C/Colon 1B media components plus 100 ng/mL human FGF-10 (Thermo Fisher Scientific, cat. 100-26), 500 nM SB-431542 (Selleckchem, cat. S1067), and gastrin (Tocris, cat. 3006).
[…]

[1] = second compound 0.0316 µM, first compound 0.0316 µM
[2] = second compound 0.0316 µM, first compound 0.1 µM
[3] = second compound 0.0316 µM, first compound 0.316 µM
[4] = second compound 0.0316 µM, first compound 1 µM
[5] = second compound 0.0316 µM, first compound 3.16 µM
[6] = second compound 0.0316 µM, first compound 10 µM
[7] = second compound 0.1 µM, first compound 0.0316 µM
[8] = second compound 0.1 µM, first compound 0.1 µM
[9] = second compound 0.1 µM, first compound 0.316 µM
[10] = second compound 0.1 µM, first compound 1 µM
[11] = second compound 0.1 µM, first compound 3.16 µM
[12] = second compound 0.1 µM, first compound 10 µM
[13] = second compound 0.316 µM, first compound 0.0316 µM
[14] = second compound 0.316 µM, first compound 0.1 µM
[15] = second compound 0.316 µM, first compound 0.316 µM
[16] = second compound 0.316 µM, first compound 1 µM
[17] = second compound 0.316 µM, first compound 3.16 µM
[18] = second compound 0.316 µM, first compound 10 µM
[19] = second compound 1 µM, first compound 0.0316 µM
[20] = second compound 1 µM, first compound 0.1 µM
[21] = second compound 1 µM, first compound 0.316 µM
[22] = second compound 1 µM, first compound 1 µM
[23] = second compound 1 µM, first compound 3.16 µM
[24] = second compound 1 µM, first compound 10 µM
[25] = second compound 3.16 µM, first compound 0.0316 µM
[26] = second compound 3.16 µM, first compound 0.1 µM
[27] = second compound 3.16 µM, first compound 0.316 µM
[28] = second compound 3.16 µM, first compound 1 µM
[29] = second compound 3.16 µM, first compound 3.16 µM
[30] = second compound 3.16 µM, first compound 10 µM
[31] = second compound 10 µM, first compound 0.0316 µM
[32] = second compound 10 µM, first compound 0.1 µM
[33] = second compound 10 µM, first compound 0.316 µM
[34] = second compound 10 µM, first compound 1 µM
[35] = second compound 10 µM, first compound 3.16 µM
[36] = second compound 10 µM, first compound 10 µM
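Further: spheroids exposed to compounds for seven days before reading.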
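Wherever viability, T/C is given: percent viability relative to DMSO vehicle control taken as 100%.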

C#Cc1c(F)ccc2cc(O)cc(-c3ncc4c(N5CC6CCC(C5)N6)nc(OCC56CCCN5CC(F)C6)nc4c3F)c12 (centres undefined) + CN(C)c1ccc(Nc2c3ccc(NC(=O)CCN4CCCC4)cc3nc3cc(NC(=O)CCN4CCCC4)ccc23)cc1
5.92: pIC50 (second compound 0.316 µM)
5.80: pIC50 (second compound 10 µM)
5.90: pIC50 (second compound 0.1 µM)
5.95: pIC50 (second compound 0.0316 µM) | pIC50 (second compound 1 µM)
inactive: viability, T/C [1] 97.9% | viability, T/C [2] 91.8% | viability, T/C [3] 87.2% | viability, T/C [4] 50.8% | viability, T/C [5] 36.8% | viability, T/C [6] 29.4% | viability, T/C [7] 102% | viability, T/C [8] 83.4% | viability, T/C [9] 89.6% | viability, T/C [10] 51.1% | viability, T/C [11] 39.9% | viability, T/C [12] 27.3% | viability, T/C [13] 93.2% | viability, T/C [14] 85.9% | viability, T/C [15] 64.5% | viability, T/C [16] 53.5% | viability, T/C [17] 39.3% | viability, T/C [18] 30.2% | viability, T/C [19] 96.4% | viability, T/C [20] 83.6% | viability, T/C [21] 65.7% | viability, T/C [22] 50.1% | viability, T/C [23] 42.1% | viability, T/C [24] 33.6% | viability, T/C [25] 80.5% | viability, T/C [26] 96.1% | viability, T/C [27] 68.6% | viability, T/C [28] 49.5% | viability, T/C [29] 40.3% | viability, T/C [30] 32.2% | viability, T/C [31] 84.6% | viability, T/C [32] 85.1% | viability, T/C [33] 78.5% | viability, T/C [34] 50.8% | viability, T/C [35] 45.5% | viability, T/C [36] 27.2%
6.04: pIC50 (second compound 3.16 µM)

CC(=O)O[C@H]1C(=O)[C@@]2(C)[C@H]([C@H](OC(=O)c3ccccc3)[C@]3(O)C[C@H](OC(=O)[C@H](O)[C@@H](NC(=O)c4ccccc4)c4ccccc4)C(C)=C1C3(C)C)[C@]1(OC(C)=O)CO[C@@H]1C[C@@H]2O + CN(C)c1ccc(Nc2c3ccc(NC(=O)CCN4CCCC4)cc3nc3cc(NC(=O)CCN4CCCC4)ccc23)cc1
< 5.00: pIC50 (second compound 0.0316 µM) | pIC50 (second compound 0.1 µM) | pIC50 (second compound 0.316 µM) | pIC50 (second compound 1 µM) | pIC50 (second compound 3.16 µM) | pIC50 (second compound 10 µM)
inactive: viability, T/C [1] 78.2% | viability, T/C [2] 72.8% | viability, T/C [3] 63.9% | viability, T/C [4] 66.5% | viability, T/C [5] 75.6% | viability, T/C [6] 86% | viability, T/C [7] 88% | viability, T/C [8] 60.7% | viability, T/C [9] 65.1% | viability, T/C [10] 67.6% | viability, T/C [11] 74.3% | viability, T/C [12] 79.7% | viability, T/C [13] 87.6% | viability, T/C [14] 63.1% | viability, T/C [15] 51.3% | viability, T/C [16] 72.4% | viability, T/C [17] 77.2% | viability, T/C [18] 81.4% | viability, T/C [19] 59.5% | viability, T/C [20] 60.5% | viability, T/C [21] 74.6% | viability, T/C [22] 65.9% | viability, T/C [23] 71% | viability, T/C [24] 85.6% | viability, T/C [25] 62.9% | viability, T/C [26] 68.9% | viability, T/C [27] 68.1% | viability, T/C [28] 65.2% | viability, T/C [29] 76.3% | viability, T/C [30] 87.6% | viability, T/C [31] 63.8% | viability, T/C [32] 67.1% | viability, T/C [33] 76.5% | viability, T/C [34] 79.9% | viability, T/C [35] 80.3% | viability, T/C [36] 92.4%

— PubChem BioAssay AID2060511 (Molecular Pharmacology Branch, DTP, NCI, 2025)
